Where two headings read alike, the source gives them in different places.
Experiments:
[1] = test system: E. coli; assay: Checkerboard broth dilution synergy study (mic); type: cell-based; conditions: Table II; for MIC: Escherichia coli, read-out: mic, drug alone
[2] = test system: Serratia marcescens; assay: Checkerboard broth dilution synergy study (mic); type: cell-based; conditions: Table II; for MIC: Serratia marcescens, read-out: mic, drug alone
[3] = test system: Proteus rettgeri; assay: Checkerboard broth dilution synergy study (mic); type: cell-based; conditions: Table II, strain 65
[4] = test system: Proteus mirabilis; assay: Checkerboard broth dilution synergy study (mic); type: cell-based; conditions: Table II, strain Allen
[5] = test system: E. cloacae; assay: Checkerboard broth dilution synergy study (mic); type: cell-based; conditions: Table II; for MIC: Enterobacter cloacae, read-out: mic, drug alone
[6] = single 1 mg/kg (i.m.), healthy volunteers; cited from earlier work
[7] = test system: Pseudomonas maltophilia; assay: Checkerboard broth dilution synergy study (mic); type: cell-based; conditions: Table II; for MIC: Stenotrophomonas maltophilia, read-out: mic, drug alone
[8] = test system: Pseudomonas aeruginosa; assay: Checkerboard broth dilution synergy study (mic); type: cell-based; conditions: Table II; for MIC: Pseudomonas aeruginosa, read-out: mic, drug alone
[9] = test system: Klebsiella pneumoniae; assay: Checkerboard broth dilution synergy study (mic); type: cell-based; conditions: Table II; for MIC: Klebsiella pneumoniae, read-out: mic, drug alone
[10] = test system: Proteus vulgaris; assay: Checkerboard broth dilution synergy study (mic); type: cell-based; conditions: Table II; for MIC: Proteus vulgaris, read-out: mic, drug alone
[11] = test system: Acinetobacter sp.; assay: Checkerboard broth dilution synergy study (mic); type: cell-based; conditions: Table II; for MIC: Acinetobacter, read-out: mic, drug alone

NC[C@H]1O[C@H](O[C@H]2[C@H](O)[C@@H](O[C@H]3O[C@H](CO)[C@@H](O)[C@H](N)[C@H]3O)[C@H](N)C[C@@H]2N)[C@H](N)C[C@@H]1O [tobramycin]
0.06 µg/mL: mic of each drug in combination I + T ([9]; strain 512)
16 mg/L: MIC ([1]; strain 1262) | MIC ([2]; strain 100) | MIC ([2]; strain 302-2) | MIC ([5]; strain 1246) | MIC ([9]; strain 130) | MIC ([9]; strain 463)
32 mg/L: MIC ([2]; strain Townsend) | MIC ([4]; Proteus mirabilis, read-out: mic, drug alone) | MIC ([5]; strain 1253) | MIC ([5]; strain 1415) | MIC ([7]; strain 505) | MIC ([9]; strain 214-1) | MIC ([9]; strain 933) | MIC ([10]; strain Shide)
64 mg/L: MIC ([1]; strain 77-3) | MIC ([1]; strain 136-3) | MIC ([2]; strain 796) | MIC ([3]; Providencia rettgeri, read-out: mic, drug alone) | MIC ([7]; strain 10) | MIC ([8]; strain 424) | MIC ([8]; strain 447) | MIC ([8]; strain 1484) | MIC ([10]; strain 363)
> 64 mg/L: MIC ([1]; strain 46-2) | MIC ([1]; strain 1260) | MIC ([1]; strain Dill) | MIC ([2]; strain 14142) | MIC ([5]; strain B293) | MIC ([8]; strain Davis) | MIC ([9]; strain 512) | MIC ([9]; strain 1204-2)
0.03 µg/mL: mic of each drug in combination I + T ([9]; strain 214-1) | mic of each drug in combination I + T ([9]; strain 1204-2)
4.4 µg/mL: peak serum concentrations [6]
< 0.015 µg/mL: mic of each drug in combination I + T ([5]; strain 1415) | mic of each drug in combination I + T ([9]; strain 463)
1 mg/L: MIC ([11]; strain 106) | MIC ([11]; strain 109)
16 µg/mL: mic of each drug in combination I + T ([2]; strain 796)
< 0.5 µg/mL: mic of each drug in combination I + T ([8]; strain 447)
4 µg/mL: mic of each drug in combination I + T ([1]; strain 46-2) | mic of each drug in combination I + T ([1]; strain 136-3) | mic of each drug in combination I + T ([1]; strain 1253) | mic of each drug in combination I + T ([1]; strain Dill) | mic of each drug in combination I + T ([2]; strain 14142)
2 µg/mL: mic of each drug in combination I + T ([5]; strain 1253) | mic of each drug in combination I + T ([7]; strain 11) | mic of each drug in combination I + T ([8]; strain 366) | mic of each drug in combination I + T ([8]; strain 1484)
1 µg/mL: mic of each drug in combination I + T ([2]; strain 302-2) | mic of each drug in combination I + T [3] | mic of each drug in combination I + T [4] | mic of each drug in combination I + T ([8]; strain 84) | mic of each drug in combination I + T ([8]; strain Davis) | mic of each drug in combination I + T ([10]; strain 363) | mic of each drug in combination I + T ([10]; strain Shide)
8 mg/L: MIC ([8]; strain 84)
4 mg/L: MIC ([1]; strain Briley) | MIC ([7]; strain 11) | MIC ([8]; strain 366) | MIC ([11]; strain 28-2) | MIC ([11]; strain 107)
0.5 µg/mL: mic of each drug in combination I + T ([1]; strain 1260) | mic of each drug in combination I + T ([2]; strain Townsend) | mic of each drug in combination I + T ([5]; strain 1246) | mic of each drug in combination I + T ([7]; strain 505) | mic of each drug in combination I + T ([8]; strain 424) | mic of each drug in combination I + T ([9]; strain 130) | mic of each drug in combination I + T ([9]; strain 933) | mic of each drug in combination I + T ([11]; strain 28-1) | mic of each drug in combination I + T ([11]; strain 28-2) | mic of each drug in combination I + T ([11]; strain 106) | mic of each drug in combination I + T ([11]; strain 107) | mic of each drug in combination I + T ([11]; strain 109)
8 µg/mL: mic of each drug in combination I + T ([1]; strain 1262) | mic of each drug in combination I + T ([1]; strain 1415) | mic of each drug in combination I + T ([1]; strain Briley) | mic of each drug in combination I + T ([2]; strain 100) | mic of each drug in combination I + T ([5]; strain B293) | mic of each drug in combination I + T ([7]; strain 10)
0.5 mg/L: MIC ([11]; strain 28-1)
0.25 µg/mL: mic of each drug in combination I + T ([1]; strain 77-3)

— patent publication US4452778A, “Synergistic antibacterial compositions and method of treatment of infections caused by multiple antibiotic-resistant organisms” (Eli Lilly and Company, priority 1981, dated 1984)
